Measured values published in ChEMBL document CHEMBL1201862, “PubChem BioAssay data set” (2004).
Calls of active or inactive are those of the source.

What was measured:
[1] = Luminescence Cell-Based Dose Confirmation HTS to Identify Activators of 5'UTR Stem-Loop Driven Alpha-Synuclein mRNA Translation in H4 Neuroglioblastoma Cells. [Related pubchem assays: 1829 (Project Summary), 1814 (Primary HTS)]; type: functional
[2] = Luminescence Cell-Based Dose Response HTS to Identify Activators of Luciferase Translation or Activity in H4 […] Cells. [Related pubchem assays: 1829 (Project Summary), 1814 (Primary HTS)]; type: functional
H4 = experiment: Luminescence Cell-Based Dose Response HTS to Identify Activators of 5'UTR Stem-Loop Driven Prion Protein mRNA Translation in H4 Neuroglioblastoma Cells. [Related pubchem assays: 1829 (Project Summary), 1814 (Primary HTS)]; type: functional; conditions: Homo sapiens
[3] = target: T1, Calpain-2 catalytic subunit (Sus scrofa, UniProt P43367); experiment: m-calpain protease blockers, concentration series – biochemical, fluorogenic peptide substrate, dose response (AID 1420); type: functional
T1 sequence (P43367 whole entry): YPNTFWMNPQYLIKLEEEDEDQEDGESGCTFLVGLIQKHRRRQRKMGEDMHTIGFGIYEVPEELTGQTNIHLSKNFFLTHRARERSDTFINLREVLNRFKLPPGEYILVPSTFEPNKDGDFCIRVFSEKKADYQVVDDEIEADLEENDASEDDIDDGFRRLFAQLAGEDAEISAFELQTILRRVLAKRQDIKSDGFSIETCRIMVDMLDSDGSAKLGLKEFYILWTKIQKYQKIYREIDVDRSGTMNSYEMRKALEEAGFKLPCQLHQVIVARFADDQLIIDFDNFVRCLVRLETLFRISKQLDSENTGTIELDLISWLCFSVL

[4] = target: T2, Short transient receptor potential channel 4 (Mus musculus, UniProt Q9QUQ5); experiment: calcium entry via TRPC4 opening agents – cell-based, HEK293 TRPC4/mu-opioid, Fluo-4 calcium, dose response (AID 434937); type: functional
T2 sequence (Q9QUQ5 whole entry): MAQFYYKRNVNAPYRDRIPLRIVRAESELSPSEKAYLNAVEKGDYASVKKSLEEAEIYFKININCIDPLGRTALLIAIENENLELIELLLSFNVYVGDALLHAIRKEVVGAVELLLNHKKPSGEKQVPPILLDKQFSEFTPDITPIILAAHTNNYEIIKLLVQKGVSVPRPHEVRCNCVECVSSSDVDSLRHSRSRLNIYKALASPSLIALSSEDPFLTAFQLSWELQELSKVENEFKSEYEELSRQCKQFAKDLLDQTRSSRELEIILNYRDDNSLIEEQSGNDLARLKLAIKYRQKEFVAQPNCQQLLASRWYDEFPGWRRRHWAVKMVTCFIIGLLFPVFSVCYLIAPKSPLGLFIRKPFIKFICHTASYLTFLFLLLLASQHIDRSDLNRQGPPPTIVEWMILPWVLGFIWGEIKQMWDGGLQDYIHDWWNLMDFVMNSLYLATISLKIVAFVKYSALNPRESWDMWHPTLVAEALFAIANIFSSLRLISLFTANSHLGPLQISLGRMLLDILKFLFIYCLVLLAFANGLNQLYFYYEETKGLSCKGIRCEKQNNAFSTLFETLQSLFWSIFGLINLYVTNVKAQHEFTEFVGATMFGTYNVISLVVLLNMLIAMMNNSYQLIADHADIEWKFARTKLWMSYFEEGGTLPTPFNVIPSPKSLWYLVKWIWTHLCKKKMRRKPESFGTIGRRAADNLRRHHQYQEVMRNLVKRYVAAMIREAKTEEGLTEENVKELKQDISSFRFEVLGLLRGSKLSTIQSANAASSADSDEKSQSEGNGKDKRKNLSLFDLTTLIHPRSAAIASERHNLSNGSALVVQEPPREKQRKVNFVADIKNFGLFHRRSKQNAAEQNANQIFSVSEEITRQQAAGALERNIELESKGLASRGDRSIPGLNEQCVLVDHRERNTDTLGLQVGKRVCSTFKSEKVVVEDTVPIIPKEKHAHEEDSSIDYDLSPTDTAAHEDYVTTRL

[5] = viability of uninfected HEp-2 cells – cell-based, HTS, cytotoxicity control for RSV inhibitor project, dose response (AID 2410); type: functional; conditions: human respiratory syncytial virus
[6] = Trypanosoma cruzi growth suppression in host cells – NIH3T3 host cells, beta-gal luminescence, confirmation (AID 2044); type: functional, cell-based;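 also: intracellular parasites grown in NIH/3T3 mouse fibroblasts as host cells; luminescent beta-galactosidase reporter signal from transgenic T. cruzi replicating inside host cells; inhibitors lower the luminescence signal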
[7] = NIH3T3 cell viability loss – ATP luminescence, mouse fibroblasts, counter-screen, dose response (AID 2010); type: functional, cell-based;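 also: cells exposed to compound for about 90 hours before reading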
[8] = target: T3, Heat shock factor protein 1 (Mus musculus, UniProt P38532); experiment: decrease of HSF1-responsive luciferase luminescence – cell-based, NIH3T3, dose retest, confirmation (AID 2382); type: functional;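 also: NIH3T3 fibroblasts with HSF1-driven luciferase reporter stressed by proteasome inhibitor MG132; luminescence from HSF1-driven luciferase expression after 8 hours of MG132 stress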
T3 sequence (P38532 whole entry): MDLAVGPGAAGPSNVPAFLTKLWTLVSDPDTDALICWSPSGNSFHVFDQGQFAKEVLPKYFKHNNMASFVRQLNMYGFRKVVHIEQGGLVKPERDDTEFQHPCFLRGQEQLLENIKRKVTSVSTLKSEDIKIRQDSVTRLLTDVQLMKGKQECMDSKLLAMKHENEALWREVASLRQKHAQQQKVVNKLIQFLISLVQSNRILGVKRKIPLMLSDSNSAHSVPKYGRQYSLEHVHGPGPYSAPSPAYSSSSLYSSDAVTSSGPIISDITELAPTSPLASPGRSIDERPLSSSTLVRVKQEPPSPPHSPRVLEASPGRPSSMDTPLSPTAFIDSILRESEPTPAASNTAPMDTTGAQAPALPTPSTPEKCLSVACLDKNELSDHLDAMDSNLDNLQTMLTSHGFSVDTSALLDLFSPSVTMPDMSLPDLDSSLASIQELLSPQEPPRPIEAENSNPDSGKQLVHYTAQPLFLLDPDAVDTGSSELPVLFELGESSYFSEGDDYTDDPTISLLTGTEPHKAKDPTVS

H9c2 = experiment: cells; type: functional, cell-based; conditions: Rattus norvegicus, H9c2, Myocardium
[9] = reduction of Shn3 3'UTR-driven luciferase in osteoblasts – cell-based, Clone20 osteoblasts, firefly luciferase, cherry-picked, dose response (AID 624132); type: functional;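 also: firefly luciferase luminescence from reporter carrying the Shn3 3'UTR in osteoblasts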
[10] = loss of viability in HepG2 cells – cell-based, CellTiter-Glo, cherry-picked, cytotoxicity control for Shn3 inhibitor project, dose response (AID 624134); type: functional
[11] = non-specific 3'UTR reporter inhibition in Clone20-Shn3RL – cell-based, Renilla luciferase, cherry-picked, counter-screen for Shn3 inhibitor project, dose response (AID 624133); type: functional

## S=C(NCCc1ccccc1)N1CCc2ccccc2C1
[1]
  EC50: 12.2 µM (active)
[2]
  EC50: 9.54 µM (active)
H4
  EC50: 26.3 µM (active)

## O=C(COc1ccc(C(=O)c2ccccc2)cc1)NC1CCCCCC1
[3]
  IC50: 22.9 µM (not active)

## O=C(CCCCn1c(=O)[nH]c2ccccc2c1=O)NC1CCN(Cc2ccccc2)CC1
[4]
  EC50: 0.376 µM (active)

## COc1c2c(cc3c1C(CC(O)Cc1ccccc1)N(C)CC3)OCO2 (configuration not stated)
[4]
  EC50: 2.99 µM (active)

## COC(=O)c1ccccc1N=Nc1c(O)n[nH]c1N
[5]
  CC50: > 50 µM (active)
[4]
  EC50: 2.99 µM (active)

## Cc1cccc(C)c1N(CC(=O)Nc1cc(Cl)ccc1Oc1ccccc1)S(C)(=O)=O
[3]
  IC50: 2.8 µM (not active)

## COc1ccc(CCn2c(=N)c(C(=O)NCC3CCCO3)cc3c(=O)n4cccc(C)c4nc32)cc1 (configuration not stated)
[1]
  EC50: > 120 µM (not active)
[2]
  EC50: 34.5 µM (active)
H4
  EC50: > 120 µM (not active)
[6]
  EC50: 1.2 µM (active)
[7]
  EC50: > 30 µM (not active)

## CN1CCN(c2ccc([N+](=O)[O-])c3cccnc23)CC1
[8]
  EC50: > 195 µM (not active)
[4]
  EC50: 0.004 µM (active)

## COc1ccc(CCNc2oc(COc3ccc(F)cc3)nc2C#N)cc1
[3]
  IC50: 9.9 µM (not active)

## O=c1cc(-c2ccncc2)oc2ccccc12
[5]
  CC50: 36.7 µM (active)
H9c2
  IC50: > 79 µM (inactive)

## CCN1C(=O)/C(=C/c2nc3ccccc3c(=O)n2-c2ccc(C)cc2)c2ccccc21
[1]
  EC50: 11 µM (active)
[2]
  EC50: > 120 µM (not active)
H4
  EC50: 49.8 µM (active)
[6]
  EC50: 1.79 µM (active)
[7]
  EC50: > 60 µM (not active)

## CC(OC(=O)Cc1nnc(O)c2ccccc12)C(=O)Nc1ccccc1[N+](=O)[O-] (configuration not stated)
H9c2
  IC50: > 79 µM (inactive)

## CC1(C)CC2CC(C)(CN2c2ncnc3ccc(Br)cc23)C1 (configuration not stated)
[9]
  AC50: 2.11 µM (active)
[10]
  AC50: 37.2 µM (active)
[11]
  AC50: 0.972 µM (active)

## CCc1ccc(-c2cc(C(=O)NCc3ccccn3)c3ccccc3n2)cc1
[1]
  EC50: 6.99 µM (active)
[2]
  EC50: 21.4 µM (active)
H4
  EC50: 11.4 µM (active)

## Cn1c(N2CCN(C(=O)Nc3ccc(C(F)(F)F)cc3)CC2)nc2ccccc21
[4]
  EC50: 3.35 µM (active)

## CC(=O)N1N=C(c2ccccc2)CC1c1cn(C)c2ccccc12 (configuration not stated)
[1]
  EC50: 9.19 µM (active)
[2]
  EC50: 10.4 µM (active)
H4
  EC50: 53 µM (active)

## CCOC(=O)C1CCCN(S(=O)(=O)c2cccs2)C1 (configuration not stated)
[3]
  IC50: < 0.4 µM (not active)

## COCCCn1c(C)nc2c(c1=O)c1nc3ccccc3nc1n2CCc1ccccc1
H9c2
  IC50: 11.7 µM (active)
